From publication PMC11999280, “Design and screening of novel endosomal escape compounds that enhance functional delivery of oligonucleotides in vitro” (Molecular Therapy. Nucleic Acids, 2025)

Legend:
Assay type in all cases: cell-based
[1] = system: mCherry-GAL9 expressing 16HBE cells; test: GAL9 recruitment assay, 16HBE; conditions: calculated mean from >3 independent exp.
Method: (§1) Experiments assessing GAL9 localization as an indicator for endosomal remodeling were performed as previously described[15] using 8× stablemCherry-GAL9 expressing cell lines, SHSY5Y, U2OS, 16HBE, NCI-H358, HuH7, HepG2, HEK293, and HeLa. For mCherry-GAL9 recruitment, 3,000 or 6,500 cells/well (depending upon cell line) were seeded into 384-well CellCarrier Ultra plates 24 h prior to treatment (PerkinElmer, catalog no. 6007558). An Echo 655T acoustic dispenser (Labcyte) was used for EEE dose-response preparation by transferring to the cell plate. At assay endpoints, cells were PBS washed, 4% paraformaldehyde fixed at room temperature […] (VWR, catalog no. 9713.1000), and nuclei stained with PBS +1 μg/mL Hoechst 33342 (Thermo Fisher Scientific, catalog no. H21492).
(§2) Imaging was performed using a spinning-disk confocal microscope (Yokogawa: CV8000) with a ×20w objective (numerical aperture 1.0). Cells and mCherry-GAL9 structure identification and quantification were done using Columbus image-analysis software (PerkinElmer version 2.9.0). Data processing was done using Spotfire (Tibco version 11.4) and Prism (GraphPad version 9.1.0). Image panels were assembled using the FigureJ plugin for FIJI.[43] All mCherry-GAL9 experiments were performed three times (N = 3) with duplicated wells per treatment (n = 2).

[2] = system: mCherry-GAL9 expressing HuH7 cells; test: GAL9 recruitment assay, HuH7; conditions: calculated mean from >3 independent exp.
Method: as §1, §2

[3] = system: mCherry-GAL9 expressing HepG2 cells; test: GAL9 recruitment assay, HepG2; conditions: calculated mean from >3 independent exp.
Method: as §1, §2

[4] = system: mCherry-GAL9 expressing SHSY5Y cells; test: GAL9 recruitment assay, SHSY5Y; conditions: calculated mean from >3 independent exp.
Method: as §1, §2

[5] = system: mCherry-GAL9 expressing HeLa cells; test: GAL9 recruitment assay, HeLa; conditions: calculated mean from >3 independent exp.
Method: as §1, §2

[6] = system: mCherry-GAL9 expressing U2OS cells; test: GAL9 recruitment assay, U2OS; conditions: calculated mean from >3 independent exp.
Method: as §1, §2

[7] = system: HeLa_Luc705 cells (pLuc/705 splice-switching reporter); test: Functional 705-SSO delivery, luciferase splice-switching assay; conditions: HeLa-Luc705 + 2 µM SSO, mean from >3 independent experiments
Excerpt: Therefore, next, we functionally screened the SSO delivery in the HeLa_Luc705 reporter cell line. HeLa_Luc705 carries a pLuc/705 splice-switching reporter luciferase gene interrupted by a mutated β-globin intron, which creates a preferentially used cryptic 5′ splice site leading to aberrant splicing. Functional SSO delivery masks the cryptic site, redirecting the splicing machinery to the right splicing site, allowing the measurement of luciferase expression (Figure S1).[25]^,[26]^,[27]^,[28] We used SSO transfection with LF2000 as transfection control and the previously published endosomal escape enhancer CMP05 (here, EEE2) as positive control.[15]
For the assessment of functional SSO therapeutics, a HeLa_Luc705 cell line was grown in DMEM media supplemented with 10% fetal bovine serum (FBS). For most treatments, 10,000 cells/well were seeded in a 96-well plate, 24 h pre-incubated with 1- to 2-μM oligonucleotide, and then treated at the described EEE concentration. At 24 h post-treatment, cells were PBS rinsed and collected for further analysis (treatments and incubation times changed accordingly to the experiment design). Luciferase readout was performed as previously described,[15] using a GloMax 96-well plate microplate luminometer (Promega) immediately after adding 30 μL auto-injected luciferin substrate (Promega Firefly Luciferase Assay System; Thermo Scientific, catalog no. 16174) in a white-walled 96-well plate containing 30 μL 0.1% Triton X-100 (Sigma-Aldrich) cell lysed. Photon exposure time and delay were set to 10 and 2 s after injection. LF2000 was used as the transfection reagent control (Thermo Scientific, catalog no. 11668019). For EEE experiments using 1 or 2 μM SSOs, the control was prepared using lipofection with 100–200 nM SSO; this is to avoid complex induced cell toxicity.
705-SSO was purchased from and synthesized by Integrated DNA Technologies. The 705-SSO sequence was previously published, containing 2′-O-methylated bases and only phosphorothioate-saturated backbone linkages were included.[15] The 705-SSO was high-performance liquid chromatography purified, shipped, and stored in IDTE buffer (10 mM Tris, 0.1 mM EDTA).

[8] = system: mCherry-GAL9 expressing NCI-H358 cells; test: GAL9 recruitment assay, NCI-H358; conditions: calculated mean from >3 independent exp.
Method: as §1, §2

[9] = system: mCherry-GAL9 expressing HEK293 cells; test: GAL9 recruitment assay, HEK293; conditions: calculated mean from >3 independent exp.
Method: as §1, §2

CCOc1nn(C2CCN(C)CC2)cc1Nc1ncc(C(F)(F)F)c(-c2c[nH]c3ccccc23)n1 [EEE15]
Gal9 response compared to reference ([1]; EEE 0.31 µM): 0.006 | Gal9 response compared to reference ([1]; EEE 0.62 µM): 0.007 | Gal9 response compared to reference ([1]; EEE 1.25 µM): 0.007 | Gal9 response compared to reference ([1]; EEE 2.5 µM): 0.008 | Gal9 response compared to reference ([1]; EEE 5 µM): 0.010 | Gal9 response compared to reference ([1]; EEE 10 µM): 0.034 | Gal9 response compared to reference ([2]; EEE 0.31 µM): 0.008 | Gal9 response compared to reference ([2]; EEE 0.62 µM): 0.007 | Gal9 response compared to reference ([2]; EEE 1.25 µM): 0.008 | Gal9 response compared to reference ([2]; EEE 2.5 µM): 0.009 | Gal9 response compared to reference ([2]; EEE 5 µM): 0.009 | Gal9 response compared to reference ([2]; EEE 10 µM): 0.011 | Gal9 response compared to reference ([3]; EEE 0.31 µM): 0.008 | Gal9 response compared to reference ([3]; EEE 0.62 µM): 0.008 | Gal9 response compared to reference ([3]; EEE 1.25 µM): 0.009 | Gal9 response compared to reference ([3]; EEE 2.5 µM): 0.007 | Gal9 response compared to reference ([3]; EEE 5 µM): 0.007 | Gal9 response compared to reference ([3]; EEE 10 µM): 0.010 | Gal9 response compared to reference ([4]; EEE 0.31 µM): 0.014 | Gal9 response compared to reference ([4]; EEE 0.62 µM): 0.017 | Gal9 response compared to reference ([4]; EEE 1.25 µM): 0.014 | Gal9 response compared to reference ([4]; EEE 2.5 µM): 0.016 | Gal9 response compared to reference ([4]; EEE 5 µM): 0.012 | Gal9 response compared to reference ([4]; EEE 10 µM): 0.012 | Gal9 response compared to reference ([5]; EEE 0.31 µM): 0.004 | Gal9 response compared to reference ([5]; EEE 0.62 µM): 0.004 | Gal9 response compared to reference ([5]; EEE 1.25 µM): 0.004 | Gal9 response compared to reference ([5]; EEE 2.5 µM): 0.005 | Gal9 response compared to reference ([5]; EEE 5 µM): 0.004 | Gal9 response compared to reference ([5]; EEE 10 µM): 0.003 | Gal9 response compared to reference ([6]; EEE 0.31 µM): 0.010 | Gal9 response compared to reference ([6]; EEE 0.62 µM): 0.009 | Gal9 response compared to reference ([6]; EEE 1.25 µM): 0.010 | Gal9 response compared to reference ([6]; EEE 2.5 µM): 0.009 | Gal9 response compared to reference ([6]; EEE 5 µM): 0.014 | Gal9 response compared to reference ([6]; EEE 10 µM): 0.014 | Luciferase expression compared to reference ([7]; EEE 2.5 - 3 µM): 0.652 | Gal9 response compared to reference ([8]; EEE 0.31 µM): 0.013 | Gal9 response compared to reference ([8]; EEE 0.62 µM): 0.016 | Gal9 response compared to reference ([8]; EEE 1.25 µM): 0.017 | Gal9 response compared to reference ([8]; EEE 2.5 µM): 0.015 | Gal9 response compared to reference ([8]; EEE 5 µM): 0.016 | Gal9 response compared to reference ([8]; EEE 10 µM): 0.011 | Gal9 response compared to reference ([9]; EEE 0.31 µM): 0.020 | Gal9 response compared to reference ([9]; EEE 0.62 µM): 0.019 | Gal9 response compared to reference ([9]; EEE 1.25 µM): 0.015 | Gal9 response compared to reference ([9]; EEE 2.5 µM): 0.015 | Gal9 response compared to reference ([9]; EEE 5 µM): 0.018 | Gal9 response compared to reference ([9]; EEE 10 µM): 0.022

COc1nn(C2CCNCC2)cc1Nc1ncc(C(F)(F)F)c(-c2c[nH]c3ccccc23)n1 [EEE24]
Gal9 response compared to reference ([1]; EEE 0.31 µM): 0.010 | Gal9 response compared to reference ([1]; EEE 0.62 µM): 0.011 | Gal9 response compared to reference ([1]; EEE 1.25 µM): 0.011 | Gal9 response compared to reference ([1]; EEE 2.5 µM): 0.014 | Gal9 response compared to reference ([1]; EEE 5 µM): 0.035 | Gal9 response compared to reference ([1]; EEE 10 µM): 0.335 | Gal9 response compared to reference ([2]; EEE 0.31 µM): 0.010 | Gal9 response compared to reference ([2]; EEE 0.62 µM): 0.010 | Gal9 response compared to reference ([2]; EEE 1.25 µM): 0.011 | Gal9 response compared to reference ([2]; EEE 2.5 µM): 0.016 | Gal9 response compared to reference ([2]; EEE 5 µM): 0.019 | Gal9 response compared to reference ([2]; EEE 10 µM): 0.174 | Gal9 response compared to reference ([3]; EEE 0.31 µM): 0.010 | Gal9 response compared to reference ([3]; EEE 0.62 µM): 0.009 | Gal9 response compared to reference ([3]; EEE 1.25 µM): 0.009 | Gal9 response compared to reference ([3]; EEE 2.5 µM): 0.008 | Gal9 response compared to reference ([3]; EEE 5 µM): 0.008 | Gal9 response compared to reference ([3]; EEE 10 µM): 0.104 | Gal9 response compared to reference ([4]; EEE 0.31 µM): 0.016 | Gal9 response compared to reference ([4]; EEE 0.62 µM): 0.015 | Gal9 response compared to reference ([4]; EEE 1.25 µM): 0.010 | Gal9 response compared to reference ([4]; EEE 2.5 µM): 0.013 | Gal9 response compared to reference ([4]; EEE 5 µM): 0.070 | Gal9 response compared to reference ([4]; EEE 10 µM): 0.703 | Gal9 response compared to reference ([5]; EEE 0.31 µM): 0.005 | Gal9 response compared to reference ([5]; EEE 0.62 µM): 0.005 | Gal9 response compared to reference ([5]; EEE 1.25 µM): 0.004 | Gal9 response compared to reference ([5]; EEE 2.5 µM): 0.004 | Gal9 response compared to reference ([5]; EEE 5 µM): 0.008 | Gal9 response compared to reference ([5]; EEE 10 µM): 0.207 | Gal9 response compared to reference ([6]; EEE 0.31 µM): 0.014 | Gal9 response compared to reference ([6]; EEE 0.62 µM): 0.015 | Gal9 response compared to reference ([6]; EEE 1.25 µM): 0.014 | Gal9 response compared to reference ([6]; EEE 2.5 µM): 0.015 | Gal9 response compared to reference ([6]; EEE 5 µM): 0.026 | Gal9 response compared to reference ([6]; EEE 10 µM): 0.166 | Luciferase expression compared to reference ([7]; EEE 5 µM): 7.300 | Luciferase expression compared to reference ([7]; EEE 1-1.25 µM): 0.741 | Luciferase expression compared to reference ([7]; EEE 2.5 - 3 µM): 1.920 | Gal9 response compared to reference ([8]; EEE 0.31 µM): 0.019 | Gal9 response compared to reference ([8]; EEE 0.62 µM): 0.018 | Gal9 response compared to reference ([8]; EEE 1.25 µM): 0.016 | Gal9 response compared to reference ([8]; EEE 2.5 µM): 0.015 | Gal9 response compared to reference ([8]; EEE 5 µM): 0.021 | Gal9 response compared to reference ([8]; EEE 10 µM): 0.115 | Gal9 response compared to reference ([9]; EEE 0.31 µM): 0.024 | Gal9 response compared to reference ([9]; EEE 0.62 µM): 0.019 | Gal9 response compared to reference ([9]; EEE 1.25 µM): 0.014 | Gal9 response compared to reference ([9]; EEE 2.5 µM): 0.017 | Gal9 response compared to reference ([9]; EEE 5 µM): 0.100 | Gal9 response compared to reference ([9]; EEE 10 µM): 0.464
